This is an account of results in patent publication US20240309043A1, “THERAPEUTICALLY ACTIVE STEROIDAL DERIVATIVES” (Organon R&D Finland Ltd., priority 2017, published 2024).

For series [1], the target named is T1, recombinant human 17β-HSD2 (Homo sapiens, UniProt P37059).
T1 construct: made in house; host or cells: Sd9 (Sf9) insect cells, baculovirus (Bac to Bac Expression System)
T1 sequence (P37059 1-387): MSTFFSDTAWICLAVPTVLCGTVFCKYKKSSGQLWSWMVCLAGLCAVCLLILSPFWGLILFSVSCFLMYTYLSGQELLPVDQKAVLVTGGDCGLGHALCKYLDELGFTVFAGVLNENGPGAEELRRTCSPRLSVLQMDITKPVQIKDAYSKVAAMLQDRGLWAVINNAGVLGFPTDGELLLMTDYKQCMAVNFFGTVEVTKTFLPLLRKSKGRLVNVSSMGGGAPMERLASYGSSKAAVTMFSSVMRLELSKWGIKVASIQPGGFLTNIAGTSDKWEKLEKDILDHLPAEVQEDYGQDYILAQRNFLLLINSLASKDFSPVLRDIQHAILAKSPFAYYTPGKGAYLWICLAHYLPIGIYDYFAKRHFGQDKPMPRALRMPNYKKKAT
The experiment in a line: Inhibition of recombinant human 17β-HSD2. The following applies: inhibitor 1 μM; 50 nM estradiol, 1 mM NADH, 30 min RT. The class given is biochemical. The method in brief: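 Sf9 baculovirus-expressed enzyme membrane extract (4 μg/ml) incubated 30 min at RT in 20 mM KH2PO4 pH 8.5 with 50 nM estradiol (³H-tracer) and 1 mM NADH, inhibitor at 1 μM or 0.1 μM, 1% DMSO. TCA-stopped; estradiol-to-estrone conversion by radio-HPLC, % inhibition = 100 − % conversion.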

Series [2] addresses T2, recombinant human 17β-HSD1 (Homo sapiens, UniProt P14061).
T2 construct: made in house; host or cells: Sd9 (Sf9) insect cells, baculovirus (Bac to Bac Expression System)
T2 sequence (P14061 1-328): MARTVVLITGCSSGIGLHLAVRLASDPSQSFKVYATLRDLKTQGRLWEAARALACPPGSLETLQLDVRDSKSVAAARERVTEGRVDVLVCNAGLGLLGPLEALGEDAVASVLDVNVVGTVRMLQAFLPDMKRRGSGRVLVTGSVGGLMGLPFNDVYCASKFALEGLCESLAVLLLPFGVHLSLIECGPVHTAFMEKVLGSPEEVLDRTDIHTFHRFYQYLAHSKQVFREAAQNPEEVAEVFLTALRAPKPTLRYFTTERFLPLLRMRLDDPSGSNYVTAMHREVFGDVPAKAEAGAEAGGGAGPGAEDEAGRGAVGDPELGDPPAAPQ
The experiment in a line: Inhibition of recombinant human 17β-HSD1. The class given is biochemical. Conditions: inhibitor 100 nM; 30 nM estrone, 1 mM NADPH, 30 min RT. The method in brief:
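Microsomes from Sf9 cells expressing human 17β-HSD1 (1 μg/ml) were incubated for 30 min at RT in 20 mM KH2PO4 pH 7.4 with 30 nM ³H-estrone, 1 mM NADPH and inhibitor at 1 μM or 0.1 μM (1% DMSO). Estrone-to-estradiol conversion was measured by radio-HPLC after TCA stop, and % inhibition was taken as 100 − % conversion.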

The test system of the next series is human hepatocytes. The experiment in a line: Metabolic stability assay, human hepatocyte incubations. Type of series: in vitro ADME. Conditions: 37° C., 0-60 min, half life. On the procedure: The in vitro metabolic stability of the compounds of the invention was determined for exemplified compounds using human hepatocyte incubations. Study compounds were incubated 0, 10, 20, 40 and 60 min at 37° C. Samples were collected at all time points and compounds were detected by LC-MS/MS analysis. The percent compound remaining is calculated by comparing the peak area of the parent compound at each time point to time zero. In vitro metabolic stability was determined as half life (T½), which was determined by regression analysis of the percent parent disappearance vs. time curve. The results are summarized in Table2.

Series [3] concerns HSD1 enzyme that is expressed in rabbit placenta tissue. The experiment in a line: Inhibition of E1 to E2 conversion in rabbit placenta tissue homogenate. The class given is biochemical. The following applies: inhibitor 100 nM, 30 nM estrone, 30 min.

As usually defined, the inhibition is the relative decrease from the control value, in per cent. Consider `COc1ccc(NC(=O)CC[C@@H]2C/C(=N\O)[C@@]3(C)CCC4c5ccccc5CCC4C23)nc1` (stereo partly shown) [Compound 84], for which the inhibition at 1 µM in series [1] is -15%. In addition, the inhibition at 0.1 µM in series [2] is 73%. Further, the “Human hepatocytes MetStab T1_2 min” value with human hepatocytes was 35 min. Besides, the “Rabbit placenta inhibition % @100 nM” value in series [3] stood at 35%.

On to `C[C@]12CCC3c4cccc(F)c4CCC3C1[C@H](CCC(=O)Nc1ccc(F)cn1)C/C2=N\O` (stereo partly drawn) [Compound 8, 3-((13S,15R,E)-4-fluoro-17-(hydroxyimino)-13-methyl-7,8,9,11,12,13,14,15,16,17-decahydro-6H-cyclopenta[a]phenanthren-15-yl)-N-(5-fluoropyridin-2-yl)propanamide], for which the inhibition at 1 µM in series [1] amounted to 2%. Moreover, the inhibition at 0.1 µM in series [2] amounted to 90%. For the same compound, the “Human hepatocytes MetStab T1_2 min” value in the series with human hepatocytes is listed as 52 min. In addition, the “Rabbit placenta inhibition % @100 nM” value in series [3] turned out to be 37%.

As to `Cc1cc(NC(=O)CC[C@@H]2C/C(=N\O)[C@@]3(C)CCC4c5cccc(F)c5CCC4C23)no1` (stereo partly drawn) [Compound 2, 3-((13S,15R,E)-4-fluoro-17-(hydroxyimino)-13-methyl-7,8,9,11,12,13,14,15,16,17-decahydro-6H-cyclopenta[a]phenanthren-15-yl)-N-(5-methylioxazol-3-yl)propanamide], in series [1], the inhibition at 1 µM was 9%. Besides, the inhibition at 0.1 µM in series [2] amounted to 83%. Further, the “Human hepatocytes MetStab T1_2 min” value with human hepatocytes was determined as 38 min. Moreover, the “Rabbit placenta inhibition % @100 nM” value in series [3] was 75%.

For `COc1ccnc(NC(=O)CC[C@@H]2C/C(=N\O)[C@@]3(C)CCC4c5ccccc5CCC4C23)c1` (stereo partly drawn) [Compound 106, 3-((13S,15R,E)-17-(hydroxyimino)-13-methyl-7,8,9,11,12,13,14,15,16,17-decahydro-6H-cyclopenta[a]phenanthren-15-yl)-N-(4-methoxypyridin-2-yl)propanamide], in series [1], the inhibition at 1 µM amounted to 2%. The inhibition at 0.1 µM in series [2] is 76%. In addition, in the series with human hepatocytes, the “Human hepatocytes MetStab T1_2 min” value came out at 31 min. The “Rabbit placenta inhibition % @100 nM” value in series [3] was 5%.

`C[C@]12CCC3c4cccc(F)c4CCC3C1[C@H](CCC(=O)Nc1cccnn1)C/C2=N\O` (stereo partly shown) [Compound 20]: the inhibition at 1 µM in series [1] was determined as 0%. In addition, the inhibition at 0.1 µM in series [2] turned out to be 80%. In the series with human hepatocytes, the “Human hepatocytes MetStab T1_2 min” value came to 17 min. The “Rabbit placenta inhibition % @100 nM” value in series [3] turned out to be 50%.

Consider `Cc1cnc(NC(=O)CC[C@@H]2C/C(=N\O)[C@@]3(C)CCC4c5ccccc5CCC4C23)o1` (stereo partly drawn) [Compound 108, 3-((13S,15R,E)-17-(hydroxyimino)-13-methyl-7,8,9,11,12,13,14,15,16,17-decahydro-6H-cyclopenta[a]phenanthren-15-yl)-N-(5-methyloxazol-2-yl)propanamide], for which the inhibition at 1 µM in series [1] worked out at 5%. Further, the inhibition at 0.1 µM in series [2] came to 54%. Moreover, the “Human hepatocytes MetStab T1_2 min” value in the series on human hepatocytes is 21 min. Moreover, the “Rabbit placenta inhibition % @100 nM” value in series [3] is 20%.

Consider `CC(C)c1ccc(NC(=O)CC[C@@H]2C/C(=N\O)[C@@]3(C)CCC4c5ccc(F)cc5CCC4C23)nc1` (stereo partly drawn) [Compound 42, 3-((13S,15R,E)-3-fluoro-17-(hydroxyimino)-13-methyl-7,8,9,11,12,13,14,15,16,17-decahydro-6H-cyclopenta[a]phenanthren-15-yl)-N-(5-isopropylpyridin-2-yl)propanamide], for which, in series [1], the inhibition at 1 µM is -5%. Moreover, in series [2], the inhibition at 0.1 µM was found to be 96%. Moreover, in the series with human hepatocytes, the “Human hepatocytes MetStab T1_2 min” value was 78 min. In addition, in series [3], the “Rabbit placenta inhibition % @100 nM” value is on record as 41%.

`Cc1cc(NC(=O)CC[C@@H]2C/C(=N\O)[C@@]3(C)CCC4c5ccccc5CCC4C23)no1` (stereo partly shown) [Compound 110]: the inhibition at 1 µM in series [1] was -4%. Moreover, the inhibition at 0.1 µM in series [2] came out at 33%. For the same compound, the “Human hepatocytes MetStab T1_2 min” value in the series with human hepatocytes came to 26 min. Moreover, in series [3], the “Rabbit placenta inhibition % @100 nM” value is 35%.

Consider `COc1ccnc(NC(=O)CC[C@@H]2C/C(=N\O)[C@@]3(C)CCC4c5ccc(Cl)cc5CCC4C23)c1` (stereo partly drawn) [Compound 56, 3-((13S,15R,E)-3-chloro-17-(hydroxyimino)-13-methyl-7,8,9,11,12,13,14,15,16,17-decahydro-6H-cyclopenta[a]phenanthren-15-yl)-N-(4-methoxypyridin-2-yl)propanamide], for which, in series [1], the inhibition at 1 µM was 3%. Also, in series [2], the inhibition at 0.1 µM was 63%. Besides, in the series with human hepatocytes, the “Human hepatocytes MetStab T1_2 min” value is 334 min. For the same compound, the “Rabbit placenta inhibition % @100 nM” value in series [3] was found to be 0%.

For the compound `CC(C)c1ccc(NC(=O)CC[C@@H]2C/C(=N\O)[C@@]3(C)CCC4c5cccc(F)c5CCC4C23)nc1` (stereo partly drawn) [Compound 112, 3-((13S,15R,E)-4-fluoro-17-(hydroxyimino)-13-methyl-7,8,9,11,12,13,14,15,16,17-decahydro-6H-cyclopenta[a]phenanthren-15-yl)-N-(5-isopropylpyridin-2-yl)propanamide], the inhibition at 1 µM in series [1] came to 7%. Further, the inhibition at 0.1 µM in series [2] worked out at 96%. Also, the “Human hepatocytes MetStab T1_2 min” value with human hepatocytes amounted to 29 min. Further, the “Rabbit placenta inhibition % @100 nM” value in series [3] turned out to be 67%.

Turning to `C[C@]12CCC3c4ccccc4CCC3C1[C@H](CCC(=O)Nc1ccc(F)cn1)C/C2=N\O` (stereo partly drawn) [Compound 98, N-(5-fluoropyridin-2-yl)-3-((13S,15R,E)-17-(hydroxyimino)-13-methyl-7,8,9,11,12,13,14,15,16,17-decahydro-6H-cyclopenta[a]phenanthren-15-yl)propanamide], the inhibition at 1 µM in series [1] is 0%. In addition, the inhibition at 0.1 µM in series [2] came out at 60%. Also, in the series with human hepatocytes, the “Human hepatocytes MetStab T1_2 min” value worked out at 28 min. Besides, in series [3], the “Rabbit placenta inhibition % @100 nM” value came out at 4%.

As for `COc1ccc(NC(=O)CC[C@@H]2C/C(=N\O)[C@@]3(C)CCC4c5cccc(F)c5CCC4C23)nn1` (stereo partly drawn) [Compound 4, 3-((13S,15R,E)-4-fluoro-17-(hydroxyimino)-13-methyl-7,8,9,11,12,13,14,15,16,17-decahydro-6H-cyclopenta[a]phenanthren-15-yl)-N-(6-methoxypyridazin-3-yl)propanamide], the inhibition at 1 µM in series [1] worked out at 13%. The inhibition at 0.1 µM in series [2] came to 87%. Also, the “Human hepatocytes MetStab T1_2 min” value in the series on human hepatocytes is recorded as 42 min.

Turning to `COc1ccc(NC(=O)CC[C@@H]2C/C(=N\O)[C@@]3(C)CCC4c5cccc(F)c5CCC4C23)nc1` (stereo partly drawn) [Compound 6, 3-((13S,15R,E)-4-fluoro-17-(hydroxyimino)-13-methyl-7,8,9,11,12,13,14,15,16,17-decahydro-6H-cyclopenta[a]phenanthren-15-yl)-N-(5-methoxypyridin-2-yl)propanamide], in series [1], the inhibition at 1 µM came to 1%. Further, the inhibition at 0.1 µM in series [2] was 92%. Besides, the “Human hepatocytes MetStab T1_2 min” value with human hepatocytes is recorded as 67 min. In series [3], the “Rabbit placenta inhibition % @100 nM” value was determined as 79%.

For the compound `CC(C)c1ccc(NC(=O)CC[C@@H]2C/C(=N\O)[C@@]3(C)CCC4c5ccccc5CCC4C23)nc1` (stereo partly drawn) [Compound 96, 3-((13S,15R,E)-17-(hydroxyimino)-13-methyl-7,8,9,11,12,13,14,15,16,17-decahydro-6H-cyclopenta[a]phenanthren-15-yl)-N-(5-isopropylpyridin-2-yl)propanamide], in series [1], the inhibition at 1 µM is -4%. Also, the inhibition at 0.1 µM in series [2] turned out to be 84%. Also, in the series on human hepatocytes, the “Human hepatocytes MetStab T1_2 min” value is 46 min. Also, in series [3], the “Rabbit placenta inhibition % @100 nM” value came out at 51%.

In the case of `C[C@]12CCC3c4ccc(F)cc4CCC3C1[C@H](CCC(=O)Nc1ncc(F)cc1F)C/C2=N\O` (stereo partly drawn) [Compound 152, N-(3,5-difluoropyridin-2-yl)-3-((13S,15R,E)-3-fluoro-17-(hydroxyimino)-13-methyl-7,8,9,11,12,13,14,15,16,17-decahydro-6H-cyclopenta[a]phenanthren-15-yl)propanamide], the inhibition at 1 µM in series [1] was 2%. The inhibition at 0.1 µM in series [2] was determined as 56%. Also, the “Rabbit placenta inhibition % @100 nM” value in series [3] worked out at 6%.
